# According to PMC3989207, “Subchronic Toxicological Study of Two Artemisinin Derivatives in Dogs” (PLoS ONE, 2014):
# Like-named read-outs stand apart in the source and are kept apart here.
# Columns and labels:
# [1] = set-up: method as in PMID 11060779; conditions: cited from earlier work
# [2] = set-up: method as in Teja-Isavadharm et al. (1996); conditions: after oral administration compared with i.m. injection of ARM in an oil-based vehicle; ref Teja-Isavadharm et al. (1996); cited from earlier work
# [3] = tested on: beagle dogs; experiment: Hematology in the 13-week repeated-dose dog study; format: in vivo
# Procedure: (§1) The first day of treatment was regarded as day one in the study. […] Oral administration was performed about 2 h after feeding. ARM was administered by a bolus intramuscular infusion through a 25-gauge needle at a constant volume of 2 ml kg^−1 once a day into the gluteal and infraspinous muscles. Two dogs of each sex from each group were allowed to recover without further treatment for an additional 4 weeks.
# (§2) Blood samples were collected from the femoral vein of each dog prior to treatment and every 2 weeks after the first day of treatment. Hematology parameters were measured using an automated hematology analyzer (Sysmex, XT-2000iv, Toa Medical Electronics Co. Ltd., Kobe, Japan) using standard methods. Test parameters included hemoglobin (Hb) levels, the hematocrit (Hct) fraction, erythrocyte (RBC) count, leukocyte (WBC) count, neutrophilic granulocyte fraction (NE%), monocyte fraction (MO%), lymphocyte levels (LY%), platelet count (PLT), reticulocyte count (RET%) and RBC morphology. The following clinical chemistry parameters were measured using a Hitachi-7180 Chemistry Analyzer (High-Technologies Corporation, Tokyo, Japan) and standard methods: glucose, blood urea nitrogen, inorganic phosphorus, creatinine, total protein, albumin, calcium, aspartate aminotransferase (AST), alanine aminotransferase, alkaline phosphatase, total bilirubin, creatine kinase (CK), sodium, potassium and chloride.
# The differential granulocytic and erythrocytic series (erythroid, myeloid blast cell count and the red ratio) were determined manually from blood smears.
# [4] = tested on: beagle dogs; experiment: Clinical chemistry in the 13-week repeated-dose dog study; format: in vivo
# Procedure: as §1, §2
# [5] = tested on: beagle dogs; experiment: Pathologic (histopathological) examination of organs, brain and cardiac conduction system; format: in vivo, dog
# Procedure: as §1
# Termination of treatment was scheduled to occur on weeks 4, 8 (two interim necropsies) and 13, followed by a 4-week recovery period. For pathological examinations, the animals were euthanized within 24 h of the final drug administration with sodium pentobarbital, followed by exsanguination via the femoral artery. A gross necropsy was performed, including a thorough visual examination of all the internal organs. Weights were obtained for the brain, heart, liver, spleen, lung, kidneys, adrenals, thyroid/parathyroids, thymus, pancreas and ovaries/testes/prostate, and organ-to-body weight ratios were calculated. For each animal, representative samples from approximately 48 organs and tissues were taken and fixed in neutral buffered 10% formalin, except for the sternum, which was retained in Helly’s fixative (1000 ml distilled water, 25 g potassium dichromate, 10 g sodium sulfate, 50 g mercuric chloride, 50 ml 40% formaldehyde). Histopathological sections of all samples were prepared by embedding in paraffin wax, multiple-sectioning and staining with hematoxylin and eosin (HE). Samples of the left ventricular myocardium, right lateral hepatic lobe and right kidney from two animals of each sex from each group were fixed immediately after exsanguination in 2.5% glutaraldehyde, post-fixed in 1.0% osmium tetroxide, and embedded in plastic. Ultrathin liver, kidney and heart sections were examined with a Hitachi H-600 transmission electron microscope (TEM). All other tissues were examined by light microscopy.
# After removal, the cardiac conduction system, including the sinoatrial node (SAN) and atrioventricular node (AVN), were selected by the Palate method. The brain was sectioned at multiple transverse levels to obtain susceptible brain regions. To improve the definition of the brain lesions, toluidine stains were applied on selected duplicate sections, and all preparations were examined under a light microscope. For pathologic examinations, degenerative neurons were evaluated on three randomly selected brain sections. The adjacent fields of neurons in each selected section were counted using a microscope at a magnification of 200×. […] The severity of the neuropathological lesions was defined as follows: the total number of neuropathological lesions per section area yielded a severity score from 0 to 4, where 0 = unaffected, 1 = minimally affected neurons with one degenerative cell per section, 2 = two degenerative cells per section, 3 = three degenerative cells per section and 4 = multiple degenerative areas per section.
# [6] = tested on: beagle dogs; experiment: Ultra-structural examination of liver, kidney and heart by transmission electron microscopy; format: in vivo, dog; conditions: weeks 4, 8 and 13; TEM
# Procedure: as §1
# Termination of treatment was scheduled to occur on weeks 4, 8 (two interim necropsies) and 13, followed by a 4-week recovery period. For pathological examinations, the animals were euthanized within 24 h of the final drug administration with sodium pentobarbital, followed by exsanguination via the femoral artery. A gross necropsy was performed, including a thorough visual examination of all the internal organs. Weights were obtained for the brain, heart, liver, spleen, lung, kidneys, adrenals, thyroid/parathyroids, thymus, pancreas and ovaries/testes/prostate, and organ-to-body weight ratios were calculated. For each animal, representative samples from approximately 48 organs and tissues were taken and fixed in neutral buffered 10% formalin, except for the sternum, which was retained in Helly’s fixative (1000 ml distilled water, 25 g potassium dichromate, 10 g sodium sulfate, 50 g mercuric chloride, 50 ml 40% formaldehyde). […]
# [7] = Toxicokinetic analysis of plasma drug levels (HPLC); format: in vivo, dog; conditions: both sexes, beagle, dog, plasma, other: ART p.o., ARM i.m., 6 mg/kg, ARM i.m.; for AUC: 6 mg kg^−1 daily, ART p.o., dog plasma
# Procedure: as §1
# For toxicokinetic analysis, blood samples were collected on weeks 1, 2, 4, 8 and 13 at 0 (before dosing), 0.5, 1, 2, 4, 8, 12 and 24 h after dosing. Approximately 1 ml blood was drawn from the antebrachial, cephalic or jugular vein of three animals of each sex per time point and deposited into heparinized tubes for immediate centrifugation at 3000 rpm at 4°C for 10 min. The plasma was then immediately transferred to 2 ml polypropylene tubes and stored on dry ice. Samples were stored at −80°C until HPLC analysis.
# [8] = tested on: beagle dogs; experiment: Electrocardiography in the 13-week repeated-dose dog study; format: in vivo; conditions: 6 mg kg^-1 per day p.o.; weeks 3 and 5 in males, weeks 5–9 in females (p<0.01), late stages (p<0.05)
# Procedure: as §1
# Electrocardiograms were recorded using an Auto Electrocardiogram (ECG-9130P, Nihon Kohden Corporation, Japan). Recordings were taken from each dog, while conscious, every 2 weeks from week-1. Leads I, II, III, aVR, aVL and aVF were utilized. The electrocardiography (ECG) parameters included heart rate, PR, QRS and QT interval, and QRS and T wave amplitudes. As the PQ and QT intervals vary with heart rate, they were adjusted to an RR-interval of 500 ms, corresponding to a heart rate of 120 bpm using the following equation: QT500 = QT – 0.084×(RR – 500).
# [9] = tested on: Dogs; set-up: method as in PMID 8053022, PMID 8053028, PMID 7943542; conditions: for 4 weeks; cited from earlier work
# [10] = week 2 until week 10 post-treatment, vs control groups (p<0.05)
# [11] = Week 13, females, 6 mg kg^-1 per day
# [12] = Week 4, 6 mg kg^-1 per day (ART p.o., ARM i.m.)
# [13] = Week 8, 6 mg kg^-1 per day (ART p.o., ARM i.m.)
# [14] = Week 13, 6 mg kg^-1 per day (ART p.o., ARM i.m.)
# [15] = Week 17 (after 4-week recovery)
# [16] = both treated groups, no significant differences
smiles,measurement,setting,value
"C[C@H]1[C@H](OC(=O)CCC(=O)O)O[C@@H]2O[C@@]3(C)CC[C@H]4[C@H](C)CC[C@@H]1[C@@]24OO3 [ART, artesunate]",solubility character,[1],water soluble
same,decline of plasma concentrations,[2],declined much faster after oral administration
same,Hematology: Hb,"[3]; Week 4, 6 mg kg^-1 per day","↓Hct, ↓Hb"
same,Hematology: Hct,"[3]; Week 4, 6 mg kg^-1 per day","↓Hct, ↓Hb"
same,Hematology: Hb,"[3]; Week 8, 6 mg kg^-1 per day","↓Hct, ↓Hb, ↓MCV"
same,Hematology: Hct,"[3]; Week 8, 6 mg kg^-1 per day","↓Hct, ↓Hb, ↓MCV"
same,Hematology: MCV,"[3]; Week 8, 6 mg kg^-1 per day","↓Hct, ↓Hb, ↓MCV"
same,Hematology: Hb,"[3]; Week 13, 6 mg kg^-1 per day","↓Hct, ↓Hb"
same,Hematology: Hct,"[3]; Week 13, 6 mg kg^-1 per day","↓Hct, ↓Hb"
same,MO%,"[3]; males and females, after weeks 2 and 4 (p<0.05)",significant increases
same,Hb levels,[3]; week 2,corresponding decrease
same,RBC counts,[3]; week 2,decrease
same,LY%,[3]; [10],decreased
same,NE%,[3]; [10],significantly increased
same,WBC count,[3]; [10],significantly increased
same,Clinical chemistry (overall),"[4]; Week 8, 6 mg kg^-1 per day",- (“-” = No effect)
same,Clinical chemistry: Alb(F),[4]; [11],"↓TP(F), ↓Alb(F)"
same,Clinical chemistry: TP(F),[4]; [11],"↓TP(F), ↓Alb(F)"
same,serum albumin levels,[4]; weeks 10 and 12,significant decrease
same,neurotoxicity,[5]; 6 mg kg^-1 per day p.o. for 13 weeks,not observed
same,Cardiac conduction system foci (dogs affected/examined),[5]; [12],0
same,Extramedullary hematopoiesis (dogs affected/examined),[5]; [12],3/4
same,Hepatocyte necrosis (dogs affected/examined),[5]; [12],0
same,Inhibition of erythropoiesis (dogs affected/examined),[5]; [12],2/4
same,Neuronal necrosis (dogs affected/examined),[5]; [12],0
same,Tubular cell degeneration (dogs affected/examined),[5]; [12],2/4
same,Cardiac conduction system foci (dogs affected/examined),[5]; [13],1/4
same,Extramedullary hematopoiesis (dogs affected/examined),[5]; [13],1/4
same,Hepatocyte necrosis (dogs affected/examined),[5]; [13],0
same,Inhibition of erythropoiesis (dogs affected/examined),[5]; [13],0
same,Neuronal necrosis (dogs affected/examined),[5]; [13],0
same,Tubular cell degeneration (dogs affected/examined),[5]; [13],3/4
same,Cardiac conduction system foci (dogs affected/examined),[5]; [14],2/4
same,Extramedullary hematopoiesis (dogs affected/examined),[5]; [14],0
same,Hepatocyte necrosis (dogs affected/examined),[5]; [14],0
same,Inhibition of erythropoiesis (dogs affected/examined),[5]; [14],0
same,Neuronal necrosis (dogs affected/examined),[5]; [14],0
same,Tubular cell degeneration (dogs affected/examined),[5]; [14],0
same,Cardiac conduction system foci (dogs affected/examined),[5]; [15],0
same,Extramedullary hematopoiesis (dogs affected/examined),[5]; [15],0
same,Hepatocyte necrosis (dogs affected/examined),[5]; [15],0
same,Inhibition of erythropoiesis (dogs affected/examined),[5]; [15],0
same,Neuronal necrosis (dogs affected/examined),[5]; [15],0
same,Tubular cell degeneration (dogs affected/examined),[5]; [15],1/4
same,histological examination of sternal bone marrow,[5]; [16],mild inhibition of erythropoiesis and a decreased count of mature erythrocytes
same,spleen histology,[5]; [16],extramedullary hematopoiesis was observed in the spleen
same,histopathological changes in the kidneys,[5]; vs control groups,tubular epithelium vacuolation and necrosis
same,"ultra-structural findings in hepatocytes, myocardial cells and proximal tubules in the kidney",[6],Mitochondrial bending and distortion and swollen vacuoles
same,AUC,"[7]; week 8, read-out: AUC8w",580 ± 211 ng·h/mL
same,AUC,"[7]; week four, read-out: AUC4w",1270 ± 539 ng·h/mL
same,AUC(0-t),[7]; read-out: AUC93D,729 ± 440 ng·h/mL
same,heart rate during treatment,[8],statistically significant decrease
"CCO[C@H]1O[C@@H]2O[C@@]3(C)CC[C@H]4[C@H](C)CC[C@@H]([C@H]1C)[C@@]24OO3 [ARE, arteether]",solubility character,[1],fat soluble
same,calculated average minimal daily dose necessary to produce toxicity observable by histopathology,[9],6 mg kg^−1
"C[C@H]1[C@@H](O)O[C@@H]2O[C@@]3(C)CC[C@H]4[C@H](C)CC[C@@H]1[C@@]24OO3 [DHA, dihydroartemisinin]",decline of plasma concentrations,[2],declined much faster after oral administration
